Source: PubChem BioAssay (NCI)
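Five compound concentrations were applied to cells in 96-well plates for 48 hours; endpoints were derived by simple linear interpolation of the resulting dose-response curve. The concentration for 50% growth inhibition is given as GI50. TGI marks complete inhibition of growth.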

What was measured:
Experiment in all cases: DTP human tumour cell line panel, 48 h
[1] = test system: MDA-MB-231 breast
[2] = test system: HS 578T breast
[3] = test system: IGROV1 ovarian
[4] = test system: MDA-MB-435
[5] = test system: MOLT-4 leukemia
[6] = test system: OVCAR-3 ovarian
[7] = test system: CCRF-CEM leukemia
[8] = test system: KM12 colon
[9] = test system: NCI-H226 lung
[10] = test system: PC-3 prostate
[11] = test system: SF-268 CNS
[12] = test system: SF-539 CNS
[13] = test system: SK-MEL-28 melanoma
[14] = test system: MALME-3M melanoma
[15] = test system: HT29 colon
[16] = test system: NCI/ADR-RES ovarian
[17] = test system: EKVX NSCLC
[18] = test system: OVCAR-4 ovarian
[19] = test system: A498 renal
[20] = test system: RPMI-8226 leukemia
[21] = test system: HCT-15 colon
[22] = test system: TK-10 renal
[23] = test system: 786-0 renal
[24] = test system: LOX IMVI melanoma
[25] = test system: M14 melanoma
[26] = test system: NCI-H460 lung
[27] = test system: SN12C renal
[28] = test system: K-562 leukemia
[29] = test system: U251 CNS
[30] = test system: HOP-92 NSCLC
[31] = test system: SR leukemia
[32] = test system: NCI-H23 lung
[33] = test system: RXF 393 renal
[34] = test system: SK-OV-3 ovarian
[35] = test system: T-47D breast
[36] = test system: OVCAR-8 ovarian
[37] = test system: SF-295 CNS
[38] = test system: UACC-62 melanoma
[39] = test system: MCF7 breast
[40] = test system: SNB-75 CNS
[41] = test system: COLO 205 colon
[42] = test system: DU-145 prostate
[43] = test system: BT-549 breast
[44] = test system: SW-620 colon
[45] = test system: HCT-116 colon
[46] = test system: HOP-62 NSCLC
[47] = test system: ACHN renal
[48] = test system: UACC-257 melanoma
[49] = test system: A549 NSCLC
[50] = test system: NCI-H522 lung
[51] = test system: HL-60(TB) leukemia
[52] = test system: HCC-2998 colon
[53] = test system: SNB-19 CNS
[54] = test system: SK-MEL-5 melanoma
[55] = test system: SK-MEL-2 melanoma
[56] = test system: OVCAR-5 ovarian
[57] = test system: CAKI-1 renal
[58] = test system: UO-31 renal

What does the source list for [N-]=[N+]=Nc1cccc(-c2n[nH]c(Cl)cc2=O)c1?
TGI [1]: > 100 µM; TGI [2]: > 100 µM; TGI [3]: > 100 µM; TGI [4]: > 100 µM; TGI [5]: > 100 µM; TGI [6]: > 100 µM; TGI [7]: > 100 µM; TGI [8]: > 100 µM; TGI [9]: > 100 µM; TGI [10]: > 100 µM; TGI [11]: > 100 µM; TGI [12]: > 100 µM; TGI [13]: > 100 µM; TGI [14]: > 100 µM; TGI [15]: > 100 µM; TGI [16]: > 100 µM; TGI [17]: > 100 µM; TGI [18]: > 100 µM; TGI [19]: > 100 µM; TGI [20]: > 100 µM; TGI [21]: > 100 µM; TGI [22]: > 100 µM; TGI [23]: > 100 µM; TGI [24]: > 100 µM; TGI [25]: > 100 µM; TGI [26]: > 100 µM; TGI [27]: > 100 µM; TGI [28]: > 100 µM; TGI [29]: > 100 µM; TGI [30]: > 100 µM; TGI [31]: > 100 µM; TGI [32]: > 100 µM; TGI [33]: > 100 µM; TGI [34]: > 100 µM; TGI [35]: > 100 µM; TGI [36]: > 100 µM; TGI [37]: > 100 µM; TGI [38]: > 100 µM; TGI [39]: > 100 µM; TGI [40]: > 100 µM; TGI [41]: > 100 µM; TGI [42]: > 100 µM; TGI [43]: > 100 µM; TGI [44]: > 100 µM; TGI [45]: > 100 µM; TGI [46]: > 100 µM; TGI [47]: > 100 µM; TGI [48]: > 100 µM; TGI [49]: > 100 µM; TGI [50]: > 100 µM; TGI [51]: > 100 µM; TGI [52]: > 100 µM

For COc1cc2nccc(Oc3ccc(NC(=O)C4(C(=O)Nc5ccc(F)cc5)CC4)cc3)c2cc1OC(=O)c1ccc(N)cc1, which GI50 [1] is on record?
Its GI50 is 1.98 µM.

And the TGI [1]?
The TGI was 6.53 µM.

And the GI50 [2]?
The GI50 was 0.29 µM.

And the TGI [2]?
The TGI was 2.07 µM.

What about the GI50 [3] of the same compound?
The GI50 was 6.92 µM.

What about the TGI [3] of the same compound?
The TGI was > 100 µM.

And the GI50 [4]?
Its GI50 is 2.18 µM.

And the TGI [4]?
Its TGI is > 100 µM.

And the GI50 [6]?
The GI50 was 4.36 µM.

And the TGI [6]?
The TGI was > 100 µM.

What about the GI50 [53] of the same compound?
The GI50 was 3.05 µM.

What about the TGI [53] of the same compound?
Its TGI is > 100 µM.

And the GI50 [54]?
The GI50 was 4.46 µM.

And the TGI [54]?
The TGI was > 100 µM.

What about the GI50 [7] of the same compound?
The GI50 was 2.6 µM.

What about the TGI [7] of the same compound?
Its TGI is > 100 µM.

What about the GI50 [8] of the same compound?
Its GI50 is 0.0936 µM.

And the TGI [8]?
Its TGI is > 100 µM.

What about the GI50 [9] of the same compound?
The GI50 was 3.11 µM.

And the TGI [9]?
The TGI was > 100 µM.

And the GI50 [10]?
Its GI50 is 2.5 µM.

And the TGI [10]?
Its TGI is > 100 µM.

What about the GI50 [11] of the same compound?
Its GI50 is 1.63 µM.

And the TGI [11]?
Its TGI is > 100 µM.

And the GI50 [12]?
The GI50 was 0.246 µM.

And the TGI [12]?
Its TGI is 2.04 µM.

And the GI50 [13]?
Its GI50 is 1.34 µM.

And the TGI [13]?
Its TGI is 5.16 µM.

What about the GI50 [14] of the same compound?
Its GI50 is 2.47 µM.

And the TGI [14]?
The TGI was > 100 µM.

What about the GI50 [16] of the same compound?
The GI50 was 3.74 µM.

What about the TGI [16] of the same compound?
The TGI was > 100 µM.

And the GI50 [17]?
The GI50 was 5.31 µM.

What about the TGI [17] of the same compound?
The TGI was > 100 µM.

What about the GI50 [19] of the same compound?
Its GI50 is 2.03 µM.

What about the TGI [19] of the same compound?
The TGI was 4.53 µM.

And the GI50 [20]?
The GI50 was 2.66 µM.

And the TGI [20]?
Its TGI is > 100 µM.

And the GI50 [21]?
The GI50 was 2.17 µM.

What about the TGI [21] of the same compound?
The TGI was > 100 µM.

And the GI50 [22]?
Its GI50 is 6.62 µM.

What about the TGI [22] of the same compound?
The TGI was > 100 µM.

And the GI50 [23]?
Its GI50 is 1.81 µM.

And the TGI [23]?
Its TGI is 4.45 µM.

And the GI50 [24]?
The GI50 was 1.92 µM.

And the TGI [24]?
The TGI was 5.31 µM.

What about the GI50 [25] of the same compound?
Its GI50 is 2.79 µM.

What about the TGI [25] of the same compound?
Its TGI is > 100 µM.

And the GI50 [55]?
Its GI50 is 2.38 µM.

And the TGI [55]?
The TGI was 14.5 µM.

And the GI50 [26]?
The GI50 was 3.49 µM.

And the TGI [26]?
Its TGI is 54.2 µM.

What about the GI50 [27] of the same compound?
Its GI50 is 1.39 µM.

What about the TGI [27] of the same compound?
The TGI was > 100 µM.

What about the GI50 [28] of the same compound?
Its GI50 is 1.09 µM.

And the TGI [28]?
Its TGI is 4.91 µM.

And the GI50 [30]?
The GI50 was 0.2 µM.

What about the TGI [30] of the same compound?
Its TGI is 2.42 µM.

And the GI50 [31]?
Its GI50 is 0.626 µM.

What about the TGI [31] of the same compound?
Its TGI is > 100 µM.

What about the GI50 [32] of the same compound?
The GI50 was 1.98 µM.

What about the TGI [32] of the same compound?
The TGI was > 100 µM.

What about the GI50 [56] of the same compound?
The GI50 was 2.23 µM.

And the TGI [56]?
Its TGI is > 100 µM.

What about the GI50 [33] of the same compound?
The GI50 was 0.314 µM.

What about the TGI [33] of the same compound?
Its TGI is 1.99 µM.

And the GI50 [34]?
Its GI50 is 2.95 µM.

What about the TGI [34] of the same compound?
The TGI was 8.05 µM.

And the GI50 [35]?
The GI50 was 2.92 µM.

What about the TGI [35] of the same compound?
The TGI was > 100 µM.

What about the GI50 [36] of the same compound?
Its GI50 is 5.77 µM.

And the TGI [36]?
Its TGI is > 100 µM.

And the GI50 [37]?
Its GI50 is 0.262 µM.

And the TGI [37]?
Its TGI is 1.47 µM.

And the GI50 [38]?
The GI50 was 2.85 µM.

What about the TGI [38] of the same compound?
Its TGI is > 100 µM.

And the GI50 [39]?
The GI50 was 1.72 µM.

What about the TGI [39] of the same compound?
Its TGI is > 100 µM.

What about the GI50 [40] of the same compound?
Its GI50 is 0.199 µM.

What about the TGI [40] of the same compound?
The TGI was 1.39 µM.

What about the GI50 [42] of the same compound?
Its GI50 is 3.48 µM.

What about the TGI [42] of the same compound?
Its TGI is > 100 µM.

And the GI50 [57]?
Its GI50 is 2.68 µM.

What about the TGI [57] of the same compound?
The TGI was > 100 µM.

What about the GI50 [58] of the same compound?
The GI50 was 1.58 µM.

What about the TGI [58] of the same compound?
The TGI was 6.58 µM.

And the GI50 [43]?
The GI50 was 2.88 µM.

And the TGI [43]?
Its TGI is > 100 µM.

What about the GI50 [44] of the same compound?
Its GI50 is 2.92 µM.

And the TGI [44]?
The TGI was > 100 µM.

What about the GI50 [45] of the same compound?
The GI50 was 3.08 µM.

What about the TGI [45] of the same compound?
Its TGI is > 100 µM.

What about the GI50 [47] of the same compound?
Its GI50 is 3.73 µM.

And the TGI [47]?
The TGI was > 100 µM.

What about the GI50 [48] of the same compound?
The GI50 was 4.91 µM.

And the TGI [48]?
Its TGI is > 100 µM.

What about the GI50 [49] of the same compound?
The GI50 was 3.11 µM.

What about the TGI [49] of the same compound?
Its TGI is > 100 µM.

What about the GI50 [50] of the same compound?
Its GI50 is 2.65 µM.

And the TGI [50]?
Its TGI is > 100 µM.

What about the GI50 [52] of the same compound?
The GI50 was 3.88 µM.

What about the TGI [52] of the same compound?
Its TGI is > 100 µM.
